# Experimental data published in patent US20240254138A1, “TRICYCLIC PYRIMIDINES AS CYCLIN-DEPENDENT KINASE 7 (CDK7) INHIBITORS” (JANSSEN PHARMACEUTICA NV, priority 2021, published 2024).
# Read-outs that look alike come from different tables or passages of the source.
# Assays:
# [1] = system: RNA Polymerase II Serine 5 phosphorylation (Rpb1 CTD, downstream substrate of CDK7) in A549 cells; test: Imaging-based cellular RNA PolII Ser5 phosphorylation assay in A549 cells; type: cell-based, human; settings: wild-type CDK7, RNA PolII Ser5 phosphorylation, averaged over all measurements; for IC50: Homo sapiens, A549, A549 cells, read-out: CDK7_A549 Wild-type CDK7 (pIC50) (converted); for CDK7_A549 Wild-type CDK7 (pIC50): A549 cells
# Summary of the method: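 IC50 derived by fitting % control (DMSO high, 10 μM reference low) against concentration, with Hill slope. Readout: high-content imaging of phospho-Ser5 Rpb1 CTD antibody staining in fixed, permeabilized A549 cells exposed to compound 3 h after 20 h culture in 1% FBS DMEM.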
# [2] = system: RNA Polymerase II Serine 5 phosphorylation in A549 cells overexpressing CDK7-mutant (C312S); test: Imaging-based cellular RNA PolII Ser5 phosphorylation assay in A549 cells overexpressing CDK7-mutant (C312S); type: cell-based, human; settings: RNA PolII Ser5 phosphorylation, averaged over all measurements; for IC50: Homo sapiens, A549, A549 cells overexpressing CDK7-mutant (C312S), read-out: CDK7_A549 mutant hCDK7(pIC50) (converted); for CDK7_A549 mutant hCDK7(pIC50): A549 cells overexpressing CDK7-mutant (C312S)
# Summary of the method: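 Readout was automated imaging of anti-phospho-Ser5 Rpb1 CTD immunofluorescence, with IC50 fitted to % control versus concentration. Cells were A549 stably overexpressing non-covalently targetable CDK7 C312S alongside wild-type, exposed to compound 3 h at 37 °C. DMSO and 10 μM reference compound served as controls.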
# [3] = molecular target: CDK7/cyclinH/MAT1 trimeric complex (Homo sapiens, UniProt P50613); test: In vitro CDK7 assay, potency of irreversible covalent inhibitors (kinact/KI), coupled PK/LDH ADP readout at 340 nm; settings: for Ki: CDK7 (20 nM enz.) (KI, μM); for Ki / CDK7 (20 nM enz.) (kinact, s^−1) / CDK7 (20 nM enz.) (kinact/KI, M^−1*s^−1): 20 nM enzyme; for kinact: read-out: CDK7 (20 nM enz.) (kinact, s^−1), 20 nM enzyme
# Sequence of CDK7/cyclinH/MAT1 trimeric complex (P50613 whole entry): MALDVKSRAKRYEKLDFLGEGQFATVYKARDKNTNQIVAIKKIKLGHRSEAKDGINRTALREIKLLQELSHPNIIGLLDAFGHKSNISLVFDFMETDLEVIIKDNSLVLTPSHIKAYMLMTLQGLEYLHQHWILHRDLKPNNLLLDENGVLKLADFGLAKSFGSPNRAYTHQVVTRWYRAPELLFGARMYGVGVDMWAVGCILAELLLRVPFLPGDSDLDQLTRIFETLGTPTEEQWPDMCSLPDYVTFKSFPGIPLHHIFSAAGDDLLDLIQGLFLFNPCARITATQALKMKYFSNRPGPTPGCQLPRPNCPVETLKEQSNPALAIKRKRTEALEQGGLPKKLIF
# Sequence of CDK7/cyclinH/MAT1 trimeric complex (P51946 whole entry partner): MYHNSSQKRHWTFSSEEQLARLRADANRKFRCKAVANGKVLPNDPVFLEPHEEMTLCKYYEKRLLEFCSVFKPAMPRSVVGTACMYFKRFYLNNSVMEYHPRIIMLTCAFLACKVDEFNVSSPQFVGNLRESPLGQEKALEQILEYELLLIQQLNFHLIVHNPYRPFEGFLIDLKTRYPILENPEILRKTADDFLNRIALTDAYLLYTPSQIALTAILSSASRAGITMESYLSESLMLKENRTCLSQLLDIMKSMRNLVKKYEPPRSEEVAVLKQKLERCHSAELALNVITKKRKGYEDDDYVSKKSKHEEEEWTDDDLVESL
# Sequence of CDK7/cyclinH/MAT1 trimeric complex (P51948 whole entry partner): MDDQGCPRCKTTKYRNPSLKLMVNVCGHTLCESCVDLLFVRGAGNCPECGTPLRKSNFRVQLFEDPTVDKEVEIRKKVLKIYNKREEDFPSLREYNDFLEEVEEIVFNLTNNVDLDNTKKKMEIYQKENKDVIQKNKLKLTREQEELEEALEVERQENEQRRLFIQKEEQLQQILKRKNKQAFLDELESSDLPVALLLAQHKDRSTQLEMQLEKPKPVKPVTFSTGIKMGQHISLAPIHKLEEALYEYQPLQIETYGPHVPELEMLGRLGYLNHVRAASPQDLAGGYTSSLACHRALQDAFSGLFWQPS
# [4] = read-out: CDK7 (20 nM enz.) (kinact/KI, M^−1*s^−1), 20 nM enzyme
# [5] = read-out: CDK7 (20 nM enz.) (kobs/[I], M^−1*s^−1), 20 nM enzyme
SMILES,IC50 [1] [nM],IC50 [2] [nM],Ki [3] [µM],kinact [3] [s⁻¹],"kinact/KI [3, 4] [M⁻¹ s⁻¹]","kinact/KI [3, 5] [M⁻¹ s⁻¹]",CDK7_A549 Wild-type CDK7 (pIC50) [1],CDK7_A549 mutant hCDK7(pIC50) [2],"CDK7 (20 nM enz.) (kinact, s^−1) [3] [s⁻¹]","CDK7 (20 nM enz.) (kinact/KI, M^−1*s^−1) [3] [M⁻¹ s⁻¹]"
"CC#CC(=O)N1CC[C@@H](N2CC(c3cc(C)c4c(c3)Nc3nccc(N5CCOCC5)c3[C@@H](C)O4)C2)C1 (single isomer, unassigned) [Compound 289]",123,> 10000,0.0628,2.54e-05,404,–,–,–,–,–
"C=CC(=O)N1CC(N2CC(c3cc(C#N)c4c(c3)Nc3nccc(C5CCOCC5)c3[C@H](C)O4)C2)C1 (single isomer, unassigned) [Compound 291]",1230,> 10000,–,–,–,26.5,–,–,–,–
"C=CC(=O)N1CC(N2CC(c3cc(C#N)c4c(c3)Nc3nccc(C5CCOCC5)c3[C@@H](C)O4)C2)C1 (single isomer, unassigned) [Compound 292]",56.2,8320,–,–,–,802,–,–,–,–
"C=CC(=O)N1CC(N2CC(c3cc4c(cn3)O[C@H](C)c3c(-c5cnn(C)c5)ccnc3N4)C2)C1 (single isomer, unassigned) [Compound 295]",178,~8320,0.0688,5.48e-05,796,–,–,–,–,–
"CC#CC(=O)N1CC[C@@H](N2CC(c3cc(C)c4c(c3)Nc3nccc(C5CCOCC5)c3CO4)C2)C1 (single isomer, unassigned) [Compound 296]",224,> 10000,0.067,3.52e-05,526,–,–,–,–,–
"CC#CC(=O)N1CC[C@H](N2CC(c3cc(C)c4c(c3)Nc3nccc(C5CCOCC5)c3CO4)C2)C1 (single isomer, unassigned) [Compound 305]",240,> 10000,0.0839,2.97e-05,354,–,–,–,–,–
"CC#CC(=O)N1CC(N2CC[C@@H](c3cc4c(c(C)n3)O[C@H](C)c3c(N5CCOCC5)ccnc3N4)C2)C1 (single isomer, unassigned) [Compound 308]",447,> 10000,0.434,1.51e-05,34.8,–,–,–,–,–
"CC#CC(=O)N1CC[C@H](N2CCC(c3cc4c(c(C)n3)OCc3c(N5CCOCC5)ccnc3N4)CC2)C1 (single isomer, unassigned) [Compound 309]",129,> 10000,0.277,5.45e-05,197,–,–,–,–,–
"CC#CC(=O)N1CC[C@@H](N2CCC(c3cc4c(c(C)n3)OCc3c(N5CCOCC5)ccnc3N4)CC2)C1 (single isomer, unassigned) [Compound 310]",75.9,> 10000,0.115,6.29e-05,547,–,–,–,–,–
"C=CC(=O)N1CC(N2CC[C@@H](c3cc4c(c(C)n3)O[C@H](C)c3c(N5CCOCC5)ccnc3N4)C2)C1 (single isomer, unassigned) [Compound 319]",77.6,> 10000,0.047,6.15e-05,1310,–,–,–,–,–
"C=CC(=O)N1CC[C@@H](N2CC(c3cc4c(c(C5CC5)n3)OCc3c(N5CCOCC5)ccnc3N4)C2)C1 (single isomer, unassigned) [Compound 323]",83.2,7940,0.0217,6.41e-05,2950,–,–,–,–,–
"C=CC(=O)N1CC[C@H](N2CC(c3cc4c(c(C5CC5)n3)OCc3c(N5CCOCC5)ccnc3N4)C2)C1 (single isomer, unassigned) [Compound 326]",89.1,7760,–,–,–,939,–,–,–,–
"C=CC(=O)N1CC[C@@H](N2CC(c3cc(C)c4c(c3)Nc3nccc(N5CCOCC5)c3CO4)C2)C1 (single isomer, unassigned) [Compound 327]",79.4,~10000,0.0302,4.16e-05,1380,–,–,–,–,–
"CC#CC(=O)N1CC(N2CC[C@@H](c3cc4c(c(C)n3)O[C@@H](C)c3c(N5CCOCC5)ccnc3N4)C2)C1 (single isomer, unassigned) [Compound 328]",224,> 10000,0.472,2.77e-05,58.8,–,–,–,–,–
"C=CC(=O)N1CC[C@H](N2CC(c3cc(C)c4c(c3)Nc3nccc(N5CCOCC5)c3CO4)C2)C1 (single isomer, unassigned) [Compound 329]",79.4,> 10000,0.0243,3.81e-05,1570,–,–,–,–,–
"C=CC(=O)N1CC(N2CC(c3cc4c(c(C)n3)O[C@H](C)c3c(N5CCOCC5)ccnc3N4)C2)C1 (single isomer, unassigned) [Compound 343]",–,–,0.0503,–,–,–,7.15,<5,5.902e-05,1172.91
"CC#CC(=O)N1CC(N2CCC(c3cc4c(c(C)n3)O[C@@H](C)c3c(N5CCOCC5)ccnc3N4)CC2)C1 (single isomer, unassigned) [Compound 344]",3980,> 10000,17.1,5.4e-05,3.15,–,–,–,–,–
"CC#CC(=O)N1CC(N2CCC(c3cc4c(c(C)n3)O[C@H](C)c3c(N5CCOCC5)ccnc3N4)CC2)C1 (single isomer, unassigned) [Compound 345]",87.1,> 10000,0.131,3.88e-05,296,–,–,–,–,–
"C=CC(=O)N1CC(N2CCC(c3cc(C#N)c4c(c3)Nc3nccc(N5CCOCC5)c3[C@@H](C)O4)CC2)C1 (single isomer, unassigned) [Compound 354]",15.1,4570,–,–,–,2670,–,–,–,–
"CC#CC(=O)N1CC(N2CC(c3cc4c(c(C)n3)O[C@H](C)c3c(N5CCOCC5)ccnc3N4)C2)C1 (single isomer, unassigned) [Compound 355]",195,> 10000,0.211,3.51e-05,166,–,–,–,–,–
"C=CC(=O)N1CC[C@@H](N2CCC(c3cc4c(c(C)n3)OCc3c(N5CCOCC5)ccnc3N4)CC2)C1 (single isomer, unassigned) [Compound 363]",–,–,0.0272,–,–,–,7.52,<5,5.097e-05,1874.15

# Other lines, results leading:
IC50 [1] [nM],IC50 [2] [nM],Ki [3] [µM],kinact [3] [s⁻¹],"kinact/KI [3, 4] [M⁻¹ s⁻¹]","kinact/KI [3, 5] [M⁻¹ s⁻¹]",CDK7_A549 Wild-type CDK7 (pIC50) [1],CDK7_A549 mutant hCDK7(pIC50) [2],"CDK7 (20 nM enz.) (kinact, s^−1) [3] [s⁻¹]","CDK7 (20 nM enz.) (kinact/KI, M^−1*s^−1) [3] [M⁻¹ s⁻¹]",SMILES
~23.4,> 10000,–,–,–,1240,–,–,–,–,"COC(=O)/C=C/C(=O)N1CC[C@H](N2CCC(c3cc4c(c(C)n3)OCc3c(-c5cnn(C)c5)ccnc3N4)CC2)C1 (single isomer, unassigned) [Compound 297]"
87.1,> 10000,0.0959,5.9e-05,615,–,–,–,–,–,"CC#CC(=O)N1CC[C@@H](N2CCC(c3cc4c(c(C)n3)OCc3c(-c5cnn(C)c5)ccnc3N4)CC2)C1 (single isomer, unassigned) [Compound 299]"
24,> 10000,–,–,–,2790,–,–,–,–,"COC(=O)/C=C/C(=O)N1CC[C@@H](N2CCC(c3cc4c(c(C)n3)OCc3c(-c5cnn(C)c5)ccnc3N4)CC2)C1 (single isomer, unassigned) [Compound 301]"
129,> 10000,0.111,4.09e-05,369,–,–,–,–,–,"CC#CC(=O)N1CC[C@H](N2CCC(c3cc4c(c(C)n3)OCc3c(-c5cnn(C)c5)ccnc3N4)CC2)C1 (single isomer, unassigned) [Compound 304]"
7240,> 10000,4.58,8.82e-05,19.2,–,–,–,–,–,"Cc1nc(C2CCN([C@@H]3CCN(C(=O)/C=C/C(=O)O)C3)CC2)cc2c1OCc1c(-c3cnn(C)c3)ccnc1N2 (single isomer, unassigned) [Compound 330]"
7590,> 10000,4.85,2.19e-05,4.51,–,–,–,–,–,"Cc1nc(C2CCN([C@H]3CCN(C(=O)/C=C/C(=O)O)C3)CC2)cc2c1OCc1c(-c3cnn(C)c3)ccnc1N2 (single isomer, unassigned) [Compound 332]"
60.3,~10000,0.0291,5.06e-05,1740,–,–,–,–,–,"C=CC(=O)N1CC[C@H](N2CC(c3cc(C)c4c(c3)Nc3nccc(-c5cnn(C)c5)c3CO4)C2)C1 (single isomer, unassigned) [Compound 361]"
58.9,10000,0.0325,6.59e-05,2030,–,–,–,–,–,"C=CC(=O)N1CC[C@@H](N2CC(c3cc(C)c4c(c3)Nc3nccc(-c5cnn(C)c5)c3CO4)C2)C1 (single isomer, unassigned) [Compound 362]"
43.7,> 10000,0.046,4.07e-05,885,–,–,–,–,–,"C=C(C(=O)N1CC[C@@H](N2CCC(c3cc4c(c(C)n3)OCc3c(-c5cnn(C)c5)ccnc3N4)CC2)C1)n1cccn1 (single isomer, unassigned) [Compound 365]"
